Measurements published in paper PMC5241705 (ACS Infectious Diseases, 2016).
“Also recorded” adds a separate entry of the source.

Columns and labels:
[1] = tested on: Mtb SRMV2.6 attB::guaB2^Y487C; assay type: cell-based, Mycobacterium tuberculosis
Mtb GuaB2^Y487C = Mtb GuaB2^Y487C (Mycobacterium tuberculosis, UniProt P9WKI7, Y487C); assay type: biochemical
[2] = tested on: Mtb H37Rv attB::guaB2^Y487C; assay type: cell-based, Mycobacterium tuberculosis

With O=C(C1CCCCC1)N1CCN(S(=O)(=O)c2cccc3cnccc23)CC1 [VCC234718, N-(5-Isoquinolinylsulfonyl)-N’-cyclohexanoyl-piperazine] the MIC90 [1] was >200 µM, the “inhibition of Mtb GuaB2^Y487C” value (Mtb GuaB2^Y487C) was “inactive; also recorded: refractory to inhibition” and the MIC90 [2] was >100 µM.
